The term EC50 denotes the concentration at which the effect is half-maximal. Read a high EC50 as weaker potency.

This passage reports EC50 results from US10947252B2, “Inhibitors of KEAP1-Nrf2 protein-protein interaction” (Janssen Pharmaceutica NV, priority 2018, dated 2021).

This test concerns Glo-Response ARE-luc2P HEK293 cell line. In words: ARE luciferase reporter cell-based assay.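 Further: luciferase signal tracks Nrf2 activation of the ARE once compounds disrupt KEAP1-Nrf2 binding, read with One-Glo reagent, DMSO serving as low control.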 The note with it: Homo sapiens, HEK293, 24 h, average of results obtained. On the technique in general: A reporter such as luciferase makes a cellular process visible.
Turning to `Cc1cnc2c(c1)S(=O)(=O)N(Cc1cc([C@H](c3ccn4c(C(F)(F)F)nnc4c3C)[C@@H](C)C(=O)O)ccc1C)CC1(CC1)O2` (relative stereo) [Example 546, (2*R,3*R)-2-Methyl-3-(4-methyl-3-((8′-methyl-1′,1′-dioxidospiro[cyclopropane-1,4′-pyrido[2,3-b][1,4,5]oxathiazepin]-2′(3′H)-yl)methyl)phenyl)-3-(8-methyl-3-(trifluoromethyl)-[1,2,4]triazolo[4,3-a]pyridin-7-yl)propanoic Acid], the EC50 was greater than 20000 nM.

In turn, `Cc1ncc([C@@H](c2ccn3c(C(F)(F)F)nnc3c2C)C(C)(C)C(=O)O)cc1CN1C[C@H]2CCCCN2c2ncc(C#N)cc2S1(=O)=O` (relative stereo) [Example 654, (*R)-3-(5-(((*R)-3-Cyano-5,5-dioxido-7,7a,8,9,10,11-hexahydro-6H-dipyrido[2,1-d:2′,3′-f][1,2,5]thiadiazepin-6-yl)methyl)-6-methylpyridin-3-yl)-2,2-dimethyl-3-(8-methyl-3-(trifluoromethyl)-[1,2,4]triazolo[4,3-a]pyridin-7-yl)propanoic Acid] had an EC50 of 6880 nM.

The compound `Cc1ncc([C@H](c2ccn3c(C(F)(F)F)nnc3c2C)C(C)(C)C(=O)O)cc1CN1C[C@H]2CCCCN2c2ncc(C#N)cc2S1(=O)=O` (relative stereo) [Example 656, (*S)-3-(5-(((*R)-3-Cyano-5,5-dioxido-7,7a,8,9,10,11-hexahydro-6H-dipyrido[2,1-d:2′,3′-f][1,2,5]thiadiazepin-6-yl)methyl)-6-methylpyridin-3-yl)-2,2-dimethyl-3-(8-methyl-3-(trifluoromethyl)-[1,2,4]triazolo[4,3-a]pyridin-7-yl)propanoic Acid] gave an EC50 of 3590 nM.

`CCn1nnc2c(C)c([C@H](c3ccc(C)c(CN4CC5(CCOCC5)Oc5ncccc5S4(=O)=O)c3)C(C)(C)C(=O)O)ccc21` (single isomer, unassigned) [Example 15, (*S)-3-(3-((1′,1′-Dioxido-2,3,5,6-tetrahydrospiro[pyran-4,4′-pyrido[2,3-b][1,4,5]oxathiazepin]-2′(3′H)-yl)methyl)-4-methylphenyl)-3-(1-ethyl-4-methyl-1H-benzo[d][1,2,3]triazol-5-yl)-2,2-dimethylpropanoic Acid] gave an EC50 of 0.3 nM.

With `Cc1cnc2c(c1)S(=O)(=O)N(Cc1cc([C@@H](c3ccn4c(C(F)(F)F)nnc4c3C)C(C)(C)C(=O)O)ccc1C)CC1(CCOCC1)O2` (single isomer, unassigned) [Example 18, (*S)-2,2-Dimethyl-3-(4-methyl-3-((8′-methyl-1′,1′-dioxido-2,3,5,6-tetrahydrospiro[pyran-4,4′-pyrido[2,3-b][1,4,5]oxathiazepin]-2′(3′H)-yl)methyl)phenyl)-3-(8-methyl-3-(trifluoromethyl)-[1,2,4]triazolo[4,3-a]pyridin-7-yl)propanoic Acid], the EC50 came out at 1.5 nM.

`Cc1cnc2c(c1)S(=O)(=O)N(Cc1cc([C@H](CC(=O)O)c3ccn4c(C(F)(F)F)nnc4c3C)ccc1C)CC1(CC1)O2` (single isomer, unassigned) [Example 27, (*S)-3-(4-Methyl-3-((8′-methyl-1′,1′-dioxidospiro[cyclopropane-1,4′-pyrido[2,3-b][1,4,5]oxathiazepin]-2′(3′H)-yl)methyl)phenyl)-3-(8-methyl-3-(trifluoromethyl)-[1,2,4]triazolo[4,3-a]pyridin-7-yl)propanoic Acid] had an EC50 of 28.8 nM.

Consider `Cc1ccc([C@H](CC(=O)O)c2ccc3c(nnn3CC3CC3)c2C)cc1CN1CC2(CC2)N(C)c2ncccc2S1(=O)=O` (single isomer, unassigned) [Example 78, (*S)-3-(1-(Cyclopropylmethyl)-4-methyl-1H-benzo[d][1,2,3]triazol-5-yl)-3-(4-methyl-3-((5′-methyl-1′,1′-dioxido-5′H-spiro[cyclopropane-1,4′-pyrido[2,3-f][1,2,5]thiadiazepin]-2′(3′H)-yl)methyl)phenyl)propanoic Acid], for which the EC50 stood at 8.9 nM.

In the case of `Cc1c([C@H](CC(=O)O)c2ccc(Cl)c(CN3CC4(COC4)Oc4ccccc4S3(=O)=O)c2)ccn2c(C(F)(F)F)nnc12` (single isomer, unassigned) [Example 96, (*R)-3-(4-Chloro-3-((1′,1′-dioxoidospiro[benzo[b]]oxethiazepine-4,3′-oxetan]-2(3H)-yl)methyl)phenyl)-3-(8-methyl-3-(trifluoromethyl)-[1,2,4]triazolo[4,3-a]pyridine-7-yl)propanoic Acid], the 50% effective concentration (EC50) came to 491 nM.

The compound `Cc1c([C@@H](CC(=O)O)c2ccc(Cl)c(CN3CC4(COC4)Oc4ccccc4S3(=O)=O)c2)ccn2c(C(F)(F)F)nnc12` (single isomer, unassigned) [Example 97, (*S)-3-(4-Chloro-3-((1′,1′-dioxoidospiro[benzo[b]]oxethiazepine-4,3′-oxetan]-2(3H)-yl)methyl)phenyl)-3-(8-methyl-3-(trifluoromethyl)-[1,2,4]triazolo[4,3-a]pyridine-7-yl)propanoic Acid] displayed a concentration for a half-maximal effect (EC50) of 5290 nM.

For the compound `Cc1ccc([C@H](CC(=O)O)c2ccn3c(C(F)(F)F)nnc3c2C)cc1CN1CC2(CC2)Oc2ccc(F)cc2S1(=O)=O` (single isomer, unassigned) [Example 98, (*S)-3-(3-((8-Fluoro-1,1-dioxidospiro[benzo[b][1,4,5]oxathiazepin]-4,1′-cyclopropan]-2(3H)-yl)methyl)-4-methylphenyl)-3-(8-methyl-3-(trifluoromethyl)-[1,2,4]triazolo[4,3-a]pyridin-7-yl)propanoic Acid], the concentration giving a half-maximal response (EC50) is 16 nM.

`Cc1ccc([C@H](CC(=O)O)c2ccn3c(C(F)(F)F)nnc3c2C)cc1CN1CC2(CC2)Oc2nc(Cl)ccc2S1(=O)=O` (single isomer, unassigned) [Example 100, (*S)-3-(3-((7′-Chloro-1′,1′-dioxidospiro(cyclopropane-1.4′-pyrido[2,3-b][1,4,5]oxathiazepin]-2′(3′H)-yl)methyl)-4-methylphenyl)-3-(8-methyl-3-(trifluoromethyl)-[1,2,4]triazolo[4,3-a]pyridin-7-yl)propanoic Acid] gave an EC50 of 13.3 nM.

As for `COCCCOc1ccc2c(n1)OC1(CC1)CN(Cc1cc([C@H](CC(=O)O)c3ccn4c(C(F)(F)F)nnc4c3C)ccc1C)S2(=O)=O` (single isomer, unassigned) [Example 109, (*S)-3-(-3-((7′-((3-Methoxypropoxy)-1′,1′-dioxidospiro[cyclopropane-1,4′-pyrido[2,3-b][1,4,5]oxathiazepin]-2′(3′H)-yl)methyl)-4-methylphenyl)-3-(8-methyl-3-(trifluoromethyl)-[1,2,4[triazolo[4,3-a]pyridine-7-yl)propanoic Acid], the EC50 came to 128 nM.

As for `Cc1ccc([C@H](CC(=O)O)c2ccn3c(C(F)(F)F)nnc3c2C)cc1CN1CC2(CC2)Oc2nc(N(C)CCO)ccc2S1(=O)=O` (single isomer, unassigned) [Example 110, (*S)-3-(-3-((7′-((3-Hydroxyethyl)(methyl)amino)-1′,1′-dioxidospiro[cyclopropane-1,4′-pyrido[2,3-b][1,4,5]oxathiazepin]-2′(3′H)-yl)methyl)-4-methylphenyl)-3-(8-methyl-3-(trifluoromethyl)-[1,2,4[triazolo[4,3-a]pyridine-7-yl)propanoic Acid], the EC50 stood at 485 nM.
